Several values for one entry are separate records, joined by “and”; a condition that tells them apart may be missing. Identical values can stand only once.
Assays:
[1] = Phase I/II intra-patient dose escalation trial: safety (DLT, individual MTD, SDR, adverse events CTCAE v4.0)
Description: The study design was a single-arm, multi-center phase I/II clinical trial with two phases: Phase I was an intra-patient dose (de)escalation period until an individual maximum tolerable dose (MTD) was reached. […] A DLT was defined as grade 3 or 4 toxicity according to a selection of Common Toxicity Criteria for Adverse Events (CTCAE) (V4.0) and judged by the investigator as definitely, probably, or possibly related to the study drug. The starting dose was 180 mg/m^2/day and the minimum dose was 30 mg/m^2/day. A dosing nomogram was used to minimize interpatient dosing variability.
De-escalation was done in steps of 50 mg/m^2/day until a minimal dose of 30 mg/m^2/day was reached. […] Upon reaching her or his individual MTD, a patient seamlessly entered phase II of the protocol.
During phase II, disease assessments were performed every 3 months, starting 3 months after reaching individual MTD. If treatment was discontinued for any reason during phase II, treatment was prolonged thereafter to provide a minimal treatment window of 3 months before measuring response. Patients without progressive disease continued the therapy at their individual MTD until disease progression (but no longer than 9 months). In case of clinical benefit, treatment could be continued on an individual basis at the discretion of the investigator. Toxicities were graded according CTCAE V4.0.
The primary end point was to determine a safe dose recommendation (SDR), defined as the highest dose with a DLT in no more than 1/50 patients.
The DLT associated with the starting dose was to be continuously monitored using a Bayesian criterion with a non-informative prior and a binomial-beta model for the DLT rate r. […] This decision process was repeated, i.e., it was applied to the lowered starting dose in an analogous way.
All adverse events were summarized, using MedDRA preferred terms.

[2] = Plasma pharmacokinetics of vorinostat after oral administration (non-compartmental analysis)
From the text: The assays were validated according to the common FDA and EMA guidelines on bioanalytical method validation.

[3] = maximum Grade 3 CTCAE v4.0, n = 50
[4] = 530 mg/m2/d oral, plasma, maximum of 3 values
[5] = 530 mg/m2/d oral, plasma, minimum of 3 values

O=C(CCCCCCC(=O)Nc1ccccc1)NO [vorinostat]
median individual MTD ([1]; Safety population (n = 50)): 280 mg/m^2/day
patients who reached the maximum individual MTD of 580 mg/m^2/day ([1]; Safety population (n = 50)): 4/50
treatment-related deaths ([1]; Safety population (n = 50)): No treatment-related deaths
safe dose recommendation (SDR) ([1]; highest dose with a DLT in no more than 1/50 patients, starting dose for individual dose escalation): 130 mg/m^2/day
Patients with treatment related AE: Anemia [1, 3]: 2 (4.0) Patients (%)
Patients with treatment related AE: Decreased appetite [1, 3]: 2 (4.0) Patients (%)
Patients with treatment related AE: Diarrhea [1, 3]: 1 (2.0) Patients (%)
Patients with treatment related AE: Fatigue [1, 3]: 7 (14.0) Patients (%)
Patients with treatment related AE: Headache [1, 3]: 1 (2.0) Patients (%)
Patients with treatment related AE: Hypermagnesemia [1, 3]: 3 (6.0) Patients (%)
Patients with treatment related AE: Nausea [1, 3]: 4 (8.0) Patients (%)
Patients with treatment related AE: Platelet count decreased [1, 3]: 15 Patients (%) and 15 (30.0) Patients (%)
Patients with treatment related AE: Vomiting [1, 3]: 2 (4.0) Patients (%)
Patients with treatment related AE: Weight decreased [1, 3]: 3 (6.0) Patients (%)
Patients with treatment related AE: White blood cell decreased [1, 3]: 8 (16.0) Patients (%)
Patients with treatment related AE: Platelet count decreased ([1]; maximum Grade 4 CTCAE v4.0, n = 50): 16 Patients (%) and 16 (32.0) Patients (%)
maximum individual MTD ([1]; maximum dose of the escalation scheme): 580 mg/m^2/day
MTD ([1]; single patient: High grade glioma, highest methylation score for glioblastoma IDH wt): 530 mg/m^2/d
MTD ([1]; single patient: High grade glioma, methylation profile pilocytic astrocytoma, BRAF (p.V600E)): 280 mg/m^2/d
MTD ([1]; single patient: High grade glioma, no molecular data, last dose level 280 mg/m^2/d): 530 mg/m^2/d
MTD ([1]; single patient: Medulloblastoma): 580 mg/m^2/d
MTD ([1]; single patient: SETTLE tumor): 580 mg/m^2/d
Clearance, Maximum [2, 4]: 678 L/h
Cmax, Maximum [2, 4]: 629 ng/mL
Clearance, Minimum [2, 5]: 241 L/h
Cmax, Minimum [2, 5]: 451 ng/mL
Vz, Minimum [2, 5]: 508 L
t1/2 ([2]; dose level 130 mg/m2/d, mean): 2.16 h
t1/2 ([2]; dose level 130 mg/m2/d, median): 2.16 h
t1/2 ([2]; dose level 180 mg/m2/d, mean): 2.22 h
t1/2 ([2]; dose level 330 mg/m2/d, mean): 2.13 h
AUC(0-t) ([2]; human, in vivo, 130 mg/m2): 1140 ng·h/mL
Clearance ([2]; human, in vivo, 130 mg/m2): 167 L/h
Vz ([2]; human, in vivo, 130 mg/m2): 563 L
AUC(0-t) ([2]; human, in vivo, 130 mg/m2, AUClast): 4.32 µM·h and 970 ng·h/mL
Clearance ([2]; human, in vivo, 130 mg/m2, Clearance): 108 L/h
Cmax ([2]; human, in vivo, 130 mg/m2, Cmax): 1.02 µM and 269 ng/mL
Vd ([2]; human, in vivo, 130 mg/m2, Vz): 336 L
Clearance ([2]; human, in vivo, 180 mg/m2): 225 L/h
Tmax ([2]; human, in vivo, 180 mg/m2): 2.39 h
Vz ([2]; human, in vivo, 180 mg/m2): 681 L
t1/2 ([2]; human, in vivo, 180 mg/m2): 1.93 h
AUC(0-t) ([2]; human, in vivo, 180 mg/m2, AUClast): 3.75 µM·h and 992 ng·h/mL
Clearance ([2]; human, in vivo, 180 mg/m2, Clearance): 182 L/h
Cmax ([2]; human, in vivo, 180 mg/m2, Cmax): 1.06 µM and 281 ng/mL
Tmax ([2]; human, in vivo, 180 mg/m2, Tmax): 1.5 h
Vd ([2]; human, in vivo, 180 mg/m2, Vz): 490 L
Clearance ([2]; human, in vivo, 214 mg/m2): 399 L/h
AUC(0-t) ([2]; human, in vivo, 214 mg/m2, AUClast): 2.52 µM·h and 666 ng·h/mL
Clearance ([2]; human, in vivo, 214 mg/m2, Clearance): 399 L/h
Cmax ([2]; human, in vivo, 214 mg/m2, Cmax): 1.29 µM and 341 ng/mL
half-life ([2]; human, in vivo, 214 mg/m2, t1/2): 1.12 h
AUCtotal ([2]; human, in vivo, 230 mg/m2): 1310 ng·h/mL
Clearance ([2]; human, in vivo, 230 mg/m2): 257 L/h
Vz ([2]; human, in vivo, 230 mg/m2): 640 L
AUC(0-t) ([2]; human, in vivo, 230 mg/m2, AUClast): 4.89 µM·h and 1290 ng·h/mL
Clearance ([2]; human, in vivo, 230 mg/m2, Clearance): 221 L/h
Cmax ([2]; human, in vivo, 230 mg/m2, Cmax): 1.44 µM and 380 ng/mL
Tmax ([2]; human, in vivo, 230 mg/m2, Tmax): 1.5 h
Vd ([2]; human, in vivo, 230 mg/m2, Vz): 532 L
half-life ([2]; human, in vivo, 230 mg/m2, t1/2): 1.63 h
Clearance ([2]; human, in vivo, 250 mg/m2): 189 L/h
Tmax ([2]; human, in vivo, 250 mg/m2): 1.75 h
t1/2 ([2]; human, in vivo, 250 mg/m2): 1.48 h
AUC(0-t) ([2]; human, in vivo, 250 mg/m2, AUClast): 5.77 µM·h and 1520 ng·h/mL
Clearance ([2]; human, in vivo, 250 mg/m2, Clearance): 189 L/h
Tmax ([2]; human, in vivo, 250 mg/m2, Tmax): 1.75 h
Vd ([2]; human, in vivo, 250 mg/m2, Vz): 398 L
half-life ([2]; human, in vivo, 250 mg/m2, t1/2): 1.48 h
AUC(0-t) ([2]; human, in vivo, 280 mg/m2): 4.96 µM·h
Clearance ([2]; human, in vivo, 280 mg/m2): 195 L/h
Tmax ([2]; human, in vivo, 280 mg/m2): 2.09 h
t1/2 ([2]; human, in vivo, 280 mg/m2): 1.83 h
AUC(0-t) ([2]; human, in vivo, 280 mg/m2, AUClast): 1310 ng·h/mL and 6.33 µM·h
Clearance ([2]; human, in vivo, 280 mg/m2, Clearance): 207 L/h
Tmax ([2]; human, in vivo, 280 mg/m2, Tmax): 1.5 h
half-life ([2]; human, in vivo, 280 mg/m2, t1/2): 1.5 h
Clearance ([2]; human, in vivo, 330 mg/m2): 149 L/h
Tmax ([2]; human, in vivo, 330 mg/m2): 2.00 h
Vz ([2]; human, in vivo, 330 mg/m2): 427 L
AUC(0-t) ([2]; human, in vivo, 330 mg/m2, AUClast): 8.06 µM·h and 2130 ng·h/mL
Clearance ([2]; human, in vivo, 330 mg/m2, Clearance): 126 L/h
Cmax ([2]; human, in vivo, 330 mg/m2, Cmax): 1.83 µM and 483 ng/mL
Tmax ([2]; human, in vivo, 330 mg/m2, Tmax): 2.5 h
Vd ([2]; human, in vivo, 330 mg/m2, Vz): 429 L
half-life ([2]; human, in vivo, 330 mg/m2, t1/2): 1.89 h
AUC(0-t) ([2]; human, in vivo, 380 mg/m2, AUClast): 14.2 µM·h and 3750 ng·h/mL
Cmax ([2]; human, in vivo, 380 mg/m2, Cmax): 3.38 µM and 893 ng/mL
Tmax ([2]; human, in vivo, 380 mg/m2, Tmax): 4.3 h
Clearance ([2]; human, in vivo, 430 mg/m2): 174 L/h
Tmax ([2]; human, in vivo, 430 mg/m2): 1.00 h
t1/2 ([2]; human, in vivo, 430 mg/m2): 2.49 h
AUC(0-t) ([2]; human, in vivo, 430 mg/m2, AUClast): 6.39 µM·h and 1690 ng·h/mL
Clearance ([2]; human, in vivo, 430 mg/m2, Clearance): 174 L/h
Vd ([2]; human, in vivo, 430 mg/m2, Vz): 661 L
half-life ([2]; human, in vivo, 430 mg/m2, t1/2): 2.49 h
Clearance ([2]; human, in vivo, 480 mg/m2): 237 L/h
AUC(0-t) ([2]; human, in vivo, 480 mg/m2, AUClast): 14.2 µM·h and 3760 ng·h/mL
Clearance ([2]; human, in vivo, 480 mg/m2, Clearance): 237 L/h
Cmax ([2]; human, in vivo, 480 mg/m2, Cmax): 4.64 µM and 1230 ng/mL
Tmax ([2]; human, in vivo, 480 mg/m2, Tmax): 0.5 h
Vd ([2]; human, in vivo, 480 mg/m2, Vz): 421 L
Cmax ([2]; human, in vivo, Cmax): > 270 ng/mL
AUC0_0-inf/D ([2]; human, in vivo, po): 5.49 ± 2.75 (ng/mL*h)/(mg/d)
Clearance ([2]; human, in vivo, po): 235 ± 149 L/h
Clearance, 25% Percentile ([2]; human, in vivo, po): 181 L/h
Cmax/D ([2]; human, in vivo, po): 1.70 ± 1.18 (ng/mL)/(mg/d)
Vz ([2]; human, in vivo, po): 644 ± 460 L
Vz, 25% Percentile ([2]; human, in vivo, po): 397 L
t½ ([2]; human, in vivo, po): 1.98 ± 0.96 h
Clearance, Mean ([2]; human, in vivo, po, 530 mg/m2): 408 L/h
Clearance, Median ([2]; human, in vivo, po, 530 mg/m2): 304 L/h
Vz, Maximum ([2]; human, in vivo, po, 530 mg/m2): 1330 L
Vz, Mean ([2]; human, in vivo, po, 530 mg/m2): 1008 L
Vz, Median ([2]; human, in vivo, po, 530 mg/m2): 1186 L
AUC(0-t) ([2]; human, in vivo, po, 530 mg/m2, AUClast, Median): 5.82 µM·h and 1540 ng·h/mL
Tmax ([2]; human, in vivo, po, 530 mg/m2, Tmax, Mean): 2.17 h
half-life ([2]; human, in vivo, po, 530 mg/m2, t1/2, Mean): 1.84 h
half-life ([2]; human, in vivo, po, 530 mg/m2, t1/2, Median): 1.46 h
AUClast, Median ([2]; human, in vivo, po, 580 mg/m2): 10.3 µM·h
Clearance, Maximum ([2]; human, in vivo, po, 580 mg/m2): 453 L/h
Clearance, Mean ([2]; human, in vivo, po, 580 mg/m2): 295 L/h
Clearance, Median ([2]; human, in vivo, po, 580 mg/m2): 211 L/h
Clearance, Minimum ([2]; human, in vivo, po, 580 mg/m2): 155 L/h
Cmax, Maximum ([2]; human, in vivo, po, 580 mg/m2): 1689 ng/mL
Cmax, Minimum ([2]; human, in vivo, po, 580 mg/m2): 315 ng/mL
Tmax, Maximum ([2]; human, in vivo, po, 580 mg/m2): 2.00 h
Tmax, Mean ([2]; human, in vivo, po, 580 mg/m2): 1.40 h
Vz, Maximum ([2]; human, in vivo, po, 580 mg/m2): 2135 L
Vz, Mean ([2]; human, in vivo, po, 580 mg/m2): 793 L
Vz, Median ([2]; human, in vivo, po, 580 mg/m2): 480 L
t1/2, Maximum ([2]; human, in vivo, po, 580 mg/m2): 3.30 h
t1/2, Minimum ([2]; human, in vivo, po, 580 mg/m2): 0.850 h
AUC(0-t) ([2]; human, in vivo, po, 580 mg/m2, AUClast, Mean): 11.3 µM·h
Cmax ([2]; human, in vivo, po, 580 mg/m2, Cmax, Mean): 4.33 µM and 1140 ng/mL
Cmax ([2]; human, in vivo, po, 580 mg/m2, Cmax, Median): 5.42 µM and 1430 ng/mL
half-life ([2]; human, in vivo, po, 580 mg/m2, t1/2, Mean): 1.78 h
half-life ([2]; human, in vivo, po, 580 mg/m2, t1/2, Median): 1.62 h
Tmax ([2]; human, in vivo, po, Tmax): 2.07 ± 1.37 h
Cmax ([2]; read-out: Cmax, Maximum, 530 mg/m2/d oral, plasma, maximum of 3 values): 2380 nM
Cmax ([2]; read-out: Cmax, Minimum, 530 mg/m2/d oral, plasma, minimum of 3 values): 1710 nM

Source: publication PMC6902473 (Clinical Epigenetics, 2019)
